Results: PubChem BioAssay (NCI)
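Where inhibition never reached the appropriate level, the endpoint shown equals the highest concentration tested. Otherwise, values were interpolated linearly from a five-concentration, 48-hour dose response in 96-well plates. GI50 marks 50% less growth. Definition used: TGI = concentration required for complete inhibition of growth.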

What was measured:
Experiment in all cases: growth of human tumour cells (NCI), 48 h
NCI-H23 lung = tested on: NCI-H23 lung
COLO 205 colon = tested on: COLO 205 colon
K-562 leukemia = tested on: K-562 leukemia
SF-539 CNS = tested on: SF-539 CNS
HCT-15 colon = tested on: HCT-15 colon
CCRF-CEM leukemia = tested on: CCRF-CEM leukemia
HCT-116 colon = tested on: HCT-116 colon
U251 CNS = tested on: U251 CNS
MDA-MB-435 = tested on: MDA-MB-435
HS 578T breast = tested on: HS 578T breast

Row | Structure (SMILES) | TGI (NCI-H23 lung) | TGI (COLO 205 colon) | TGI (K-562 leukemia) | TGI (SF-539 CNS) | TGI (HCT-15 colon) | TGI (CCRF-CEM leukemia) | TGI (HCT-116 colon) | TGI (U251 CNS) | GI50 (NCI-H23 lung) | GI50 (COLO 205 colon) | GI50 (MDA-MB-435) | TGI (MDA-MB-435) | GI50 (HS 578T breast) | TGI (HS 578T breast) | GI50 (SF-539 CNS) | GI50 (HCT-15 colon) | GI50 (CCRF-CEM leukemia) | GI50 (U251 CNS) | GI50 (K-562 leukemia) | GI50 (HCT-116 colon)
1 | CC(=O)O[C@]1(C(C)=O)CC[C@H]2[C@@H]3C[C@H](C)C4=CC(=O)C=C[C@]4(C)[C@@]3(F)[C@@H](O)C[C@@]21C | > 100 µM | > 100 µM | > 100 µM | > 100 µM | > 100 µM | > 100 µM | > 100 µM | > 100 µM |  |  |  |  |  |  |  |  |  |  |  | 
2 | CCCCCCC1CCC2CCCC(C)N12 (stereo unspecified) | 97.4 µM | 34.1 µM | 35.3 µM | > 100 µM | 89.6 µM | 62 µM | > 100 µM | > 100 µM |  |  |  |  |  |  |  |  |  |  |  | 
3 | CCCCOC1CC2(c3ccc(OC)cc3)C(=O)c3ccccc3N2O1 (stereo unspecified) |  | 54.1 µM | > 100 µM | > 100 µM | > 10 µM | > 100 µM | > 100 µM | > 10 µM |  |  |  |  |  |  |  |  |  |  |  | 
4 | O=C1Nc2ccc(Cl)cc2/C1=C\c1c(-c2ccc(F)cc2)nc2ccccn12 | 7.57 µM | 13.6 µM |  | 5 µM | 16.2 µM | 7.24 µM |  | 5.13 µM | 2.37 µM | 4.03 µM | 1.99 µM | 5.03 µM | 2.2 µM | 8.37 µM | 2.09 µM | 3.15 µM | 2.31 µM | 2.05 µM |  | 
5 | COc1cc(-c2c3c(cn2S(=O)(=O)c2ccccc2)-c2nc(N)sc2CC3)cc(OC)c1OC | > 100 µM | 3.53 µM | > 100 µM | 5.07 µM | 27.2 µM |  | 21.3 µM | 10.5 µM | 4.29 µM | 1.14 µM | 0.238 µM | 0.791 µM |  |  | 0.548 µM | 0.432 µM |  | 0.591 µM | 0.431 µM | 0.515 µM
6 | COc1ccc2c(c1)Oc1nc(N)c(C#N)c(N)c1C2Sc1ccc(SC)cc1 (stereo unspecified) |  | 3.6 µM | 10.3 µM | 3.11 µM | 3.33 µM |  | 3.24 µM | 3.19 µM |  | 1.85 µM | 1.74 µM | 3.23 µM |  |  | 1.72 µM | 1.58 µM |  | 1.73 µM | 2.71 µM | 1.76 µM
7 | OCC(O)CC[CH2][Sn]([c]1ccccc1)([c]1ccccc1)[c]1ccccc1 (stereo unspecified) | 29.8 µM | 35.3 µM | 23.8 µM | 32.5 µM | 26.8 µM | 41.6 µM | 22.7 µM | 30.2 µM | 15.1 µM | 19.5 µM |  |  |  |  | 17.2 µM | 12.7 µM | 13.7 µM | 15.6 µM | 8.59 µM | 10.8 µM
8 | O=c1/c(=C/c2cccc3ccccc23)sc2nc3ccccc3n12 | > 100 µM | > 100 µM | > 100 µM | > 100 µM | > 100 µM |  | > 100 µM | > 100 µM |  |  |  |  |  |  |  |  |  |  |  | 
9 | CCOC(C)OCC#CCCBr (stereo unspecified) | > 100 µM | > 100 µM | > 100 µM | > 100 µM | > 100 µM | > 100 µM | > 100 µM | > 100 µM |  |  |  |  |  |  |  |  |  |  |  | 
10 | CC(C)C1CN1CC(O)Cn1ccnc1[N+](=O)[O-] (stereo unspecified) | > 100 µM | > 100 µM | > 100 µM | > 100 µM | > 100 µM | > 100 µM | > 100 µM | > 100 µM |  |  |  |  |  | > 100 µM |  |  |  |  |  | 
11 | CC(C)(C)c1nc2c(o1)C(=Nc1ccccc1)c1ccccc1C2=O | 5.29 µM | 63 µM | 44.8 µM | 8.5 µM | 27.9 µM | > 100 µM | 12.8 µM | 14 µM |  |  |  |  |  |  |  |  |  |  |  | 
12 | O=C(/C=C/c1ccc(OCCCCCCCCCCOc2ccc(/C=C/C(=O)c3ccc(Cl)cc3)cc2)cc1)c1ccc(Cl)cc1 | > 100 µM | > 100 µM | > 100 µM | > 100 µM | > 100 µM | > 100 µM |  | > 100 µM |  |  |  |  |  |  |  |  |  |  |  | 
13 | CS(=O)(=O)C1S(=O)(=O)OCCOS1(=O)=O | > 100 µM | > 100 µM | > 100 µM | > 100 µM |  |  | > 100 µM | > 100 µM |  |  |  |  |  |  |  |  |  |  |  | 
14 | O=[N+]([O-])c1ccccc1S(=O)c1ccccc1 (stereo unspecified) | > 100 µM |  | > 100 µM | > 100 µM | > 100 µM | > 100 µM | > 100 µM | > 100 µM |  |  |  |  |  |  |  |  |  |  |  | 
15 | COc1cc(OC)cc(N2CCC(c3c(N)nc(N)nc3Cl)CC2)c1 | > 100 µM | > 100 µM | > 100 µM |  | > 100 µM | > 100 µM |  |  |  |  |  |  |  |  |  |  |  |  |  | 
16 | O=CC1=CCCC2(C1)OCCO2 | > 100 µM | > 100 µM | > 100 µM | > 100 µM | > 100 µM | > 100 µM | > 100 µM | > 100 µM |  |  |  |  |  |  |  |  |  |  |  | 
17 | COc1ccc(CC(=O)c2cc(OC)c(OC)cc2C)cc1OC | > 100 µM | > 100 µM | > 100 µM |  | > 100 µM | > 100 µM |  | > 100 µM |  |  |  |  |  |  |  |  |  |  |  | 
